Cytotoxicity data for 37 compounds are collected here from ChEMBL document CHEMBL3507680, “University of Dundee, Gates Library screen for HepG2 cell viability”.

The nature of the data set: Human HepG2 cell viability assay in 384 well format. It is filed as toxicity, cell-based. Also on record: dose 125 nL, time 70.5 hour; cytotoxicity at 70.5 h: concentration not given beside the values. To be noted: HepG2 cells, read-out: Inhibition.
As for `Cc1ncsc1CCN(C)C1CCN(c2ncnc3[nH]cnc23)CC1`, the cytotoxicity at 70.5 h was -6.66%.

Take `CCCc1nnc(NC(C)c2ccc3c(c2)OCCO3)o1` (configuration not stated): the cytotoxicity at 70.5 h turned out to be 19.1%. In the case of `CCn1c(C)nnc1SCCNc1cc(COC)ncn1`, the cytotoxicity at 70.5 h was -22.7%.

For `CCC(C(=O)N1CCN(S(=O)(=O)N2CCCC2)CC1)n1cccn1` (configuration not stated), the cytotoxicity at 70.5 h was -3.42%. `CN(Cc1ccc(-n2cccn2)cc1)c1cc(N)nc(N)n1`: the cytotoxicity at 70.5 h amounted to 18.4%.

`CC(C)c1nc(CN(C)C(=O)Cn2nc3ccccc3n2)no1`: the cytotoxicity at 70.5 h was -10.4%. The result for `O=C(c1ccc2ccccc2c1)C1CCCN(C(=O)Cn2cnnn2)C1` (configuration not stated) reads -3.65%; that for `Cc1cnc(C)c(N2CCN(CC3CCCO3)CC2)n1` (configuration not stated), -6.94%; that for `O=C(O)[C@@H]1CN(C(=O)CCC(F)(F)F)C[C@H]1c1ccncc1`, -1.6%. The figure for `CN(Cc1cnn(C)c1)c1nccc(-c2cc(C(=O)O)ccn2)n1` is 18.1%; for `CNC(C(=O)N1CCC(c2nccn2C(C)C)CC1)c1ccccc1` (configuration not stated) it is -8.05%. The figure for `CCCc1n[nH]c(=O)n1Cc1ccc(OC)cc1` is 12.2%; for `CCCN1CCC(CC(=O)N2CCC(C(O)c3nccn3C)CC2)CC1` (configuration not stated) it is -11.6%. For `CCn1nc(CC(C)C)cc1C(=O)N1CCC2(CC1)[C@H](O)C[C@@H]2O`, the cytotoxicity at 70.5 h worked out at 1.5%. As to `O=C(O)C1(Cc2cccc(Cl)c2)CCCN(c2ncnc3[nH]ccc23)C1` (configuration not stated), the cytotoxicity at 70.5 h was -13%. `Cc1cc(C)c2nc(C)cc(C(=O)NCc3csc(N(C)C)n3)c2c1`: the cytotoxicity at 70.5 h turned out to be 27.3%. Turning to `CS(=O)(=O)N1C[C@H]2CNC[C@@]2(C(=O)NCCCc2ccccc2)C1`, the cytotoxicity at 70.5 h was -3.07%.

For the compound `COc1ccc(CN(CC2CCCO2)C(=O)CN2CCOC2=O)cc1` (configuration not stated), the cytotoxicity at 70.5 h was -14.7%.

For `CCn1c(Cn2cncn2)nnc1C1CCN(C[C@H]2[C@@H]3CNC[C@@H]32)CC1`, the cytotoxicity at 70.5 h was -20.4%. As for `COC(=O)c1ccc(CNC(=O)CN2C[C@@H](NC(C)=O)[C@H](C(C)C)C2)o1`, the cytotoxicity at 70.5 h was -6.07%. The result for `NC(=O)Cn1ccnc1C1CCCN(Cc2ccccc2OC(F)F)C1` (configuration not stated) reads -6.45%. Turning to `CCc1nc(C)cc(N2CCCC(C(=O)c3ccc(OC)cc3C)C2)n1` (configuration not stated), the cytotoxicity at 70.5 h was found to be 6.28%. For the compound `CCCN1C[C@H]2CC[C@@H]1CN(Cc1ccc(Cn3cccn3)cc1)C2`, the cytotoxicity at 70.5 h is -7.61%. Take `CN1CCN(C(=O)N2CCC3(CCCN(C4CCOCC4)C3=O)C2)CC1` (configuration not stated): the cytotoxicity at 70.5 h is -0.535%. The result for `CCc1ccc(CN2CCN(c3ncc(Cl)cn3)CC2)nc1` reads -5.54%; that for `COc1cccc(OCCc2cncc(C(N)=O)c2)c1`, -9.46%; that for `O=C(O)[C@@H]1CN(Cc2cnc(C3CCCCC3)nc2)C[C@H]1C1CC1`, 10.9%.

With `Cc1cc(C(=O)N2CCCCC2c2nc3cc(F)ccc3[nH]2)nn1C` (configuration not stated), the cytotoxicity at 70.5 h was -6.6%. The result for `Cc1ccc(C)c(CN2C[C@H]3CC[C@@H]2CN(C(=O)c2cccnc2)C3)c1` reads 1.01%; that for `CCN1CCC(CC(=O)N2CCn3cccc3C2c2cccnc2)CC1` (configuration not stated), 28.5%; that for `Cc1cccc(CN2C[C@@H](CN3CCCN(C)CC3)C[C@H](CO)C2)n1`, -5.2%. The figure for `Cn1ccnc1CN1CC[C@@H]2[C@@H](CCC(=O)N2CCc2c[nH]cn2)C1` is 27.2%; for `O=C(c1cnc(Nc2ccccc2)nc1)N1CCC(O)(CO)CC1` it is -6.53%; for `COCCCC1(C(=O)O)CCCN(C(=O)c2ccc(C(C)C)[nH]c2=O)C1` (configuration not stated) it is -5.84%.

For the compound `CC(C)N1CCCn2nc(C(=O)NCCc3ccccn3)cc2C1`, the cytotoxicity at 70.5 h is -9.32%.

As to `Cc1cccc(C(=O)N2C[C@H]3CC[C@@H]2CN(S(=O)(=O)N(C)C)C3)n1`, the cytotoxicity at 70.5 h is -10.2%. With `CS(=O)(=O)Nc1ccc2c(c1)NC(=O)CC2c1cnn2cccnc12` (configuration not stated), the cytotoxicity at 70.5 h was determined as 17.5%.
